Assay results: US6562838B2, “Treatment of cardiovascular disease with quinolinone enantiomers” (R. T. Alamo Ventures I, L.L.C., priority 2001, dated 2003)
Entries after “also recorded” stand apart in the source; their conditions may differ.

What was measured:
[1] = system: phosphodiesterase III (PDE3); conditions: Gristwood et al. 1992; Frodsham et al. 1992; cited from earlier work
[2] = molecular target: T1, PDE6 partially purified from bovine retinal rod and activated by trypsin (Bos taurus, UniProt P11541+P23439); assay: PDE6 inhibition assay, Viagra vs racemic flosequinan (Example 1); format: biochemical
T1 construct: from tissue; host or cells: bovine retinal rod
T1 sequence (P11541 2-856 limits assumed): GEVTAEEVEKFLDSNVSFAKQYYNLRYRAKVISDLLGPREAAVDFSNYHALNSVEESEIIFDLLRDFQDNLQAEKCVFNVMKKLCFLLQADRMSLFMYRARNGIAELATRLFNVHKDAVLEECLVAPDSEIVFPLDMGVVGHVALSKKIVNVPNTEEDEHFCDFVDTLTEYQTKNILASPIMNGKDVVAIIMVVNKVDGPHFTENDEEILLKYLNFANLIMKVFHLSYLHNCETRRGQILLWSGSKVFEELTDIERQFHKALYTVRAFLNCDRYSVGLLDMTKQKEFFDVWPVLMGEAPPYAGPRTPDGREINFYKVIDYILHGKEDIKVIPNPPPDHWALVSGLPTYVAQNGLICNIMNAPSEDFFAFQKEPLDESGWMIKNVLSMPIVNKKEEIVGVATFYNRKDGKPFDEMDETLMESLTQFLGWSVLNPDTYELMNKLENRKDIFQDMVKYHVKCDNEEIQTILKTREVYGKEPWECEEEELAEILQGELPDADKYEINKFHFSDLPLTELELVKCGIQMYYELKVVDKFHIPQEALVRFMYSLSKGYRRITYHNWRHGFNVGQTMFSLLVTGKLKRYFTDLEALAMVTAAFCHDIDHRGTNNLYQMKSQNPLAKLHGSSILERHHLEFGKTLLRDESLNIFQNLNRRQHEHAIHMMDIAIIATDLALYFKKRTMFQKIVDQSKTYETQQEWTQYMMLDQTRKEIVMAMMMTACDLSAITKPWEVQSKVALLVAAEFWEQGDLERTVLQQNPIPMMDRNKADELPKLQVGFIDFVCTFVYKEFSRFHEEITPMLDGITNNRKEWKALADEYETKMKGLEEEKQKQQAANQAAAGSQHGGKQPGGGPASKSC
T1 sequence (P23439 2-850 limits assumed): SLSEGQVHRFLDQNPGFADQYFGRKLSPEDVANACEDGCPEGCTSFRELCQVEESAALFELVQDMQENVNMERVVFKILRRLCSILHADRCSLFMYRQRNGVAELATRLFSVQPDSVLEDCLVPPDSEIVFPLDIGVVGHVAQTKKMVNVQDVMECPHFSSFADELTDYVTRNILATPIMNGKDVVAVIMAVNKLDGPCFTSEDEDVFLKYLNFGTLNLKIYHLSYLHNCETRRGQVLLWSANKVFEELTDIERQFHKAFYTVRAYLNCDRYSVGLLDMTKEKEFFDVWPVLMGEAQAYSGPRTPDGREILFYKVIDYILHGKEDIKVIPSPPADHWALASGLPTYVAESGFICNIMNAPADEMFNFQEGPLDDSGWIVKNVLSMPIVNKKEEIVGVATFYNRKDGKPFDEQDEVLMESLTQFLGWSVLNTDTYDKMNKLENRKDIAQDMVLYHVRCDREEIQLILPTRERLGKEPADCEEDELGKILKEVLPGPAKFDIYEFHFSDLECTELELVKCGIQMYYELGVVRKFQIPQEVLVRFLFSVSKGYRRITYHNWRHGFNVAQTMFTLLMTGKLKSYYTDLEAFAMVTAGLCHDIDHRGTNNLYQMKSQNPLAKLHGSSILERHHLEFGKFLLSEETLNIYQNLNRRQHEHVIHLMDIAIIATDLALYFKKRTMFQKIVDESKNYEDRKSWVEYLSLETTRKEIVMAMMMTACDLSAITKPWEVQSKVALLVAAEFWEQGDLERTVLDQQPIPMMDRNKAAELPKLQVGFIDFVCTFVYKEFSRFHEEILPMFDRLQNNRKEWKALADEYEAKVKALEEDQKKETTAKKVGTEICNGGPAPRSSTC
Experimental: (§1) PDE6 partially purified from bovine retinal rod and activated by trypsin was used. In four separate reactions, Viagra at molar concentrations of 0.3 μM, 1.0 μM, and 3.0 μM, and a 100 μM racemic mixture of flosequinan were incubated with 0.2 μg/ml active PDE6 and 100 μM cGMP containing 0.1 μM [^3H]cGMP in Tris buffer pH 7.5 for 20 minutes at 30° C. Each reaction was terminated by raising the temperature to 100° C. for 2 minutes. The resulting GMP was converted to guanosine by addition of 10 mg/ml snake venom nucleotidase and further incubated at 30° C. for 10 minutes. Unhydrolyzed cGMP was bound to AGI-X2 resin, and [^3H]guanosine remaining in the aqueous phase was quantitated by scintillation counting.

Solubility = format: physicochemical
Text: Thus, while the present invention is not limited by the form of oral administration, aqueous and organic solution of an enantiomer of flosequinan for oral administration is contemplated. Likewise, an enantiomer of flosequinan can be associated with a solid pharmaceutical carrier for solid oral administration (i.e., in pill form).

[3] = system: PDE4 partially purified from human U-937 pronocytic cells; assay: PDE4 enzyme inhibition assay (Example 3); format: biochemical; conditions: 100 μM
Experimental: (§2) In this example, a racemic mixture of flosequinan and the (+) and (−) enantiomers of flosequinan were subjected to biochemical enzyme assays to determine their respective percent inhibition of a variety of phosphodiesterases (PDE1-PDE6). The reaction conditions for each PDE assay were as follows.
(§3) PDE4 partially purified from human U-937 pronocytic cells was used. A racemic mixture of flosequinan, and each enantiomer of flosequinan, all at a molar concentration of 100 μM, were independently incubated with 20 μg PDE4 enzyme and 1 μM cAMP containing 0.01 μM [^3H]cAMP in Tris buffer pH 7.5 for 20 minutes at 30° C. The reaction was terminated by boiling for 2 minutes, and the resulting AMP was converted to adenosine by addition of 10 mg/ml snake venom nucleotidase and further incubation at 30° C. for 10 minutes. Unhydrolyzed cAMP was bound to AGI-X2 resin, and the remaining [^3H]adenosine in the aqueous phase was quantitated by scintillation counting.

[4] = molecular target: T2, PDE5 partially purified from human platelets (Homo sapiens, UniProt O76074); assay: PDE5 enzyme inhibition assay (Example 3); format: biochemical; conditions: 100 μM
T2 construct: PDE5 partially purified from human platelets was used; from tissue; host or cells: human platelets
Experimental: as §2
PDE5 partially purified from human platelets was used. A racemic mixture of flosequinan, and each enantiomer of flosequinan, all at a molar concentration of 100 μM, were independently incubated with 120 μg PDE5 enzyme and 1 μM cGMP containing 0.01 μM [^3H]cGMP in Tris buffer pH 7.5 for 20 minutes at 30° C. The reaction was terminated by boiling for 2 minutes, and the resulting GMP was converted to guanosine by addition of 10 mg/ml snake venom nucleotidase and further incubation at 30° C. for 10 minutes. Unhydrolyzed cGMP was bound to AGI-X2 resin, and the remaining [^3H]guanosine in the aqueous phase was quantitated by scintillation counting.

[5] = molecular target: T1, PDE6 partially purified from bovine retinal rod and activated by trypsin; assay: PDE6 enzyme inhibition assay (Example 3); format: biochemical; conditions: 100 μM
Experimental: as §2
as §1, with “A” for “In four separate reactions, Viagra at molar concentrations of 0.3 μM, 1.0 μM, and 3.0 μM, and a 100 μM”, “flosequinan, and each enantiomer of flosequinan, all at a molar concentration of 100 μM,” for “flosequinan”, “were independently” for “were”, “boiling” for “raising the temperature to 100° C.”, “nucleotidase,” for “nucleotidase”

[6] = molecular target: T3, PDE1 partially purified from bovine heart (Bos taurus, UniProt P14100); assay: PDE1 enzyme inhibition assay (Example 3); format: biochemical; conditions: 100 μM
T3 construct: PDE1 partially purified from bovine heart was used; from tissue; host or cells: bovine heart
Experimental: as §2
as §3, with “PDE1 partially” for “PDE4 partially”, “from bovine heart” for “from human U-937 pronocytic cells”, “with 13” for “with 20”, “μg PDE1 enzyme, 1.0” for “μg PDE4 enzyme and 1 μM cAMP containing 0.01”, “[^3H]cAMP and CaCl2/calmodulin” for “[^3H]cAMP”

[7] = molecular target: T4, PDE3 partially purified from human platelets (Homo sapiens, UniProt Q14432); assay: PDE3 enzyme inhibition assay (Example 3); format: biochemical; conditions: for % Inhibition of PDE3: 100 μM
T4 construct: PDE3 partially purified from human platelets was used; from tissue; host or cells: human platelets
T4 sequence (Q14432 whole entry): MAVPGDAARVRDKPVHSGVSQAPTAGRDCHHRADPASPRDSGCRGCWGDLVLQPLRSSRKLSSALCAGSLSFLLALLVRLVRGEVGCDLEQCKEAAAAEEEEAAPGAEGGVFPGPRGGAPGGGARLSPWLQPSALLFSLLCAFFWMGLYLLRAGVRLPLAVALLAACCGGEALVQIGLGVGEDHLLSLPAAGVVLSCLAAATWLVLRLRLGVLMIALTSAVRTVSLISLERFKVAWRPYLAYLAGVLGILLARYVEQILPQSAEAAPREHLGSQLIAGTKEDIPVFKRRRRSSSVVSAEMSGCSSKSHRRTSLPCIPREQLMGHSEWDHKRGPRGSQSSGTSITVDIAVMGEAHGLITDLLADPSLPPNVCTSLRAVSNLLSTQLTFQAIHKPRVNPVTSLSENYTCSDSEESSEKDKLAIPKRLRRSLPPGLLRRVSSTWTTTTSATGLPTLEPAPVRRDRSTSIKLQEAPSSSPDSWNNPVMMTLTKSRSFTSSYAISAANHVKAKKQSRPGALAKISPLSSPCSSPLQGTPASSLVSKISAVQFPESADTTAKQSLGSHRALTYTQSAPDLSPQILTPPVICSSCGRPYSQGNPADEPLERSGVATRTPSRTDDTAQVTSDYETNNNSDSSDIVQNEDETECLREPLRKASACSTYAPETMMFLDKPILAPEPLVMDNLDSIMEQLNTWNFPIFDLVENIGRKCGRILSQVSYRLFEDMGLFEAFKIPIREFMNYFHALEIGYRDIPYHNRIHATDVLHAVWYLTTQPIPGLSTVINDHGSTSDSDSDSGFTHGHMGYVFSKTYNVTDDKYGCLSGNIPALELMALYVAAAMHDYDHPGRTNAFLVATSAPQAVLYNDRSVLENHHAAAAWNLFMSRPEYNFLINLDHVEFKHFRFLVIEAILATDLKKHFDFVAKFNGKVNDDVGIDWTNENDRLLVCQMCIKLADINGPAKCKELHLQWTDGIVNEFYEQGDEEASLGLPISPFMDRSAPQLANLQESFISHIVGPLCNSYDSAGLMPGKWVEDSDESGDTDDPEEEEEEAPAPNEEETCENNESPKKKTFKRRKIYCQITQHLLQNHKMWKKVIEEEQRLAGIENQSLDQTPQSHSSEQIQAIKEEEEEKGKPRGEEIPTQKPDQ
Experimental: as §2
as §3, with “PDE3 partially” for “PDE4 partially”, “human platelets” for “human U-937 pronocytic cells”, “with 13” for “with 20”, “μg PDE3” for “μg PDE4”

[8] = molecular target: T5, PDE2 partially purified from human platelets (Homo sapiens, UniProt O00408); assay: PDE2 enzyme inhibition assay (Example 3); format: biochemical; conditions: 100 μM
T5 construct: PDE2 partially purified from human platelets was used; from tissue; host or cells: human platelets
T5 sequence (O00408 whole entry): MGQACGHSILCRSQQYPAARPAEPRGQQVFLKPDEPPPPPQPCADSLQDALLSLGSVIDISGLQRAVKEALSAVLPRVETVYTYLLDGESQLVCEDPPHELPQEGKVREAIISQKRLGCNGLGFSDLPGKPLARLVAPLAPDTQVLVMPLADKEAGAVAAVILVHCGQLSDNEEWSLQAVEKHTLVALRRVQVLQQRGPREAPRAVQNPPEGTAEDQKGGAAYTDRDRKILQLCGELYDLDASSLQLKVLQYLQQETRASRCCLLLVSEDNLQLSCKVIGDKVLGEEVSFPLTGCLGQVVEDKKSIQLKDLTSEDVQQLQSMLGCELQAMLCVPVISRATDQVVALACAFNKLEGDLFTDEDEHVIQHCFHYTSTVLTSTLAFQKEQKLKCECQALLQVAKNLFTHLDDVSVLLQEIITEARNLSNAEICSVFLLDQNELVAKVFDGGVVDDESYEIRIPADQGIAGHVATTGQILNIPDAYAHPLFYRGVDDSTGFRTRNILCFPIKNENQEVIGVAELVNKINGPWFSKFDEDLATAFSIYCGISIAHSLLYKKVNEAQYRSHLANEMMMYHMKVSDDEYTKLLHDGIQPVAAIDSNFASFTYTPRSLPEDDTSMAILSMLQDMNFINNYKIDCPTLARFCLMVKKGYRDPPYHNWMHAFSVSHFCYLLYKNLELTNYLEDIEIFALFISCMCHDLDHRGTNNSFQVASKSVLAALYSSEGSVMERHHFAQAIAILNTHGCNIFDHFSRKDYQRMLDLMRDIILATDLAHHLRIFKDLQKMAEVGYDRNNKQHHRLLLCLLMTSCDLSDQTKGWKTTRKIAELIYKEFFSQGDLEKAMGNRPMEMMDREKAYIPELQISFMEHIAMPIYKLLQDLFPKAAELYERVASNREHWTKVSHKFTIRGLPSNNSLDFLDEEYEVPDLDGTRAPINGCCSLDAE
Experimental: as §2
as §3, with “PDE2 partially” for “PDE4 partially”, “human platelets” for “human U-937 pronocytic cells”, “with 23” for “with 20”, “μg PDE2 enzyme, 25” for “μg PDE4 enzyme and 1”, “containing 0.05” for “containing 0.01”

Row | Structure (SMILES) | % Inhibition of PDE4 [3] [%] | % Inhibition of PDE5 [4] [%] | % Inhibition of PDE6 [5] [%] | % Inhibition of PDE1 [6] [%] | % Inhibition of PDE3 [7] [%] | % Inhibition of PDE2 [8] [%] | melting point [°C] | further results
1 | Cn1cc([S+](C)[O-])c(=O)c2ccc(F)cc21 (racemic) [Flosequinan, 7-fluoro-1-methyl-3-(methylsulphinyl)-4(1H)-quinolone] | 24 |  |  |  |  |  |  | reported phosphodiesterase selectivity [1]: selective inhibitor of phosphodiesterase III (PDE3); inhibition of PDE6 compared to sildenafil citrate ([2]; 100 μM vs sildenafil citrate 1 μM (100-fold lower molar concentration)): approximately half as much inhibition of PDE6; times more compound on a molar basis than Viagra for around 50% PDE6 inhibition ([2]; vs Viagra 0.3 μM): more than 300 times; solubility in organic solvents (Solubility; organic solvents): soluble in many organic solvents; solubility in water (Solubility; water): water soluble
2 | Cn1cc([S@@+](C)[O-])c(=O)c2ccc(F)cc21 [(+)−flosequinan] | 6 | 17 | 22 | 28 | 32 | 18 |  | PDE1 inhibitory activity compared with the (−) enantiomer of flosequinan [6]: more PDE1 and PDE3 inhibitory activity; PDE3 inhibition compared to racemic mixture of flosequinan ([7]; same molar concentration): greater inhibition of PDE3; PDE3 inhibition compared to the (−) enantiomer of flosequinan ([7]; same molar concentration, listed as (+) enantiomer of flosequinan): more PDE1 and PDE3 inhibitory activity; also recorded: eight-fold increase
3 | Cn1cc([S+](C)[O-])c(=O)c2ccc(F)cc21 (stereo not drawn) [(−)−flosequinan] | 1 | 10 | 21 | 11 | 5 | 13 |  | 
4 | Cn1cc(C(N)=O)c(=O)c2sccc21 [Example 4 b, 4-methyl-7-oxo-4,7-dihydrothieno[3,2-b]pyridine-6-carboxamide] |  |  |  |  |  |  | 255 to 258 | 
5 | Cn1cc(C(N)=O)c(=O)c2ccc(Cl)cc21 [Example 4 e, 7-chloro-1-methyl-4-oxo-1,4-dihydroquinoline-3-carboxamide] |  |  |  |  |  |  | > 240 | 
